Assay results as given in ChEMBL document CHEMBL3991601, “The target landscape of clinical kinase drugs” (Science, 2017).
The source made the active and inactive calls. Rule as the data show it, for most assays here: actives have a measured Kd and inactives only a lower limit.

What was measured:
[1] = target: Interleukin-1 receptor-associated kinase 1 (Homo sapiens, UniProt P51617)
[2] = target: T1, RNA cytidine acetyltransferase (Homo sapiens, UniProt Q9H0A0)
T1 sequence (Q9H0A0 whole entry): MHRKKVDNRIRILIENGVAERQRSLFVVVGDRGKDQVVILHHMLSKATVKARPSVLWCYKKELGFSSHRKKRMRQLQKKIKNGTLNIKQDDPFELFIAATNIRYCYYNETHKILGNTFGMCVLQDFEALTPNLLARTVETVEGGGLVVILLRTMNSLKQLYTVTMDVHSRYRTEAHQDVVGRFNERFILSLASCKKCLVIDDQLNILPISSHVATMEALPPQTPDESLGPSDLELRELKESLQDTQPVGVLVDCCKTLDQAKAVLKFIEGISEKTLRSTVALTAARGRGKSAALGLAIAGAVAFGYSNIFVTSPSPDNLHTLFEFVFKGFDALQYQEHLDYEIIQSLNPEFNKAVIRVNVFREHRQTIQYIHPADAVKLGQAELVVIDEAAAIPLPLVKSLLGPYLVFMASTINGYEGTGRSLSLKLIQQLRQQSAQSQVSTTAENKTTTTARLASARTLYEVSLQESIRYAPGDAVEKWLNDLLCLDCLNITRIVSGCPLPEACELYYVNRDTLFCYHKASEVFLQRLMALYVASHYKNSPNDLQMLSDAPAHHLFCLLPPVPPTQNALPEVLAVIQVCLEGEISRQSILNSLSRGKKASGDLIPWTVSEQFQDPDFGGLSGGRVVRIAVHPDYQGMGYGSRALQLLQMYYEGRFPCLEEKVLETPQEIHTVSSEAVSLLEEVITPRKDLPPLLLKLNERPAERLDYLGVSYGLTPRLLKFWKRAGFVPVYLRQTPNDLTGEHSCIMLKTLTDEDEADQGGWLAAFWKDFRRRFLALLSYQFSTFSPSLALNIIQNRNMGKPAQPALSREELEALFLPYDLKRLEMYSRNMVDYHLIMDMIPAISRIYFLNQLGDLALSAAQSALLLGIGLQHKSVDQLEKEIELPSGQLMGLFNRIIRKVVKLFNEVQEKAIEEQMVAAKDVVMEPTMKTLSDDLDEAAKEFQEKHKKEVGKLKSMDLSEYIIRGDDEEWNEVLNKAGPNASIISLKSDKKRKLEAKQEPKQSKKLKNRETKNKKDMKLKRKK

[3] = target: Casein kinase I isoform delta (Homo sapiens, UniProt P48730)
[4] = target: Serine/threonine-protein kinase N1 (Homo sapiens, UniProt Q16512)
[5] = target: Ribosomal protein S6 kinase alpha-1 (Homo sapiens, UniProt Q15418)
[6] = target: T2, Glycogen phosphorylase, brain form (Homo sapiens, UniProt P11216)
T2 sequence (P11216 whole entry): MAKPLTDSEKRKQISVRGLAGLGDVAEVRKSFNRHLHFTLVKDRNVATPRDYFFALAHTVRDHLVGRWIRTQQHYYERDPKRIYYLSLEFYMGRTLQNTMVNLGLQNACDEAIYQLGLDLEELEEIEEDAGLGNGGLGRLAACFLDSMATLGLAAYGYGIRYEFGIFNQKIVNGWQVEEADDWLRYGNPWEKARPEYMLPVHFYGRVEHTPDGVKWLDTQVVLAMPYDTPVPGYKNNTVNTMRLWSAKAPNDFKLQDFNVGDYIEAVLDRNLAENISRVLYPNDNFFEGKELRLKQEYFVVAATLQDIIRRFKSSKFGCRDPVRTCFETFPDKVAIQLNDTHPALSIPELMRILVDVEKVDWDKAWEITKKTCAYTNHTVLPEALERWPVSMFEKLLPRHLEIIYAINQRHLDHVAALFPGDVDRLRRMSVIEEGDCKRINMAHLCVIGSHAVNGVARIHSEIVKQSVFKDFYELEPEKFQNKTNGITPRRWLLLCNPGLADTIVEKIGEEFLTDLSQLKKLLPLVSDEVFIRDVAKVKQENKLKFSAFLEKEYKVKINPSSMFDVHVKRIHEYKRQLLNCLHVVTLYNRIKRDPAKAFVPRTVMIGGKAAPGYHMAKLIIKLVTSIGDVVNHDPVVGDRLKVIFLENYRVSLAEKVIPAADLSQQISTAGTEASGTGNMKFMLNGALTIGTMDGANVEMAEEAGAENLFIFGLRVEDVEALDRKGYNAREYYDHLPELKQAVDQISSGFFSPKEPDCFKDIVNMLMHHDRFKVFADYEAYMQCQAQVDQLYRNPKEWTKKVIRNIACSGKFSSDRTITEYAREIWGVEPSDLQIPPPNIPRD

[7] = target: Rho-associated protein kinase 2 (Homo sapiens, UniProt O75116)
[8] = target: T3, General transcription and DNA repair factor IIH helicase subunit XPD (Homo sapiens, UniProt P18074); conditions: read-out: Kd apparent; k-562, colo 205, sk-n-be(2) and mv-4-11
T3 sequence (P18074 whole entry): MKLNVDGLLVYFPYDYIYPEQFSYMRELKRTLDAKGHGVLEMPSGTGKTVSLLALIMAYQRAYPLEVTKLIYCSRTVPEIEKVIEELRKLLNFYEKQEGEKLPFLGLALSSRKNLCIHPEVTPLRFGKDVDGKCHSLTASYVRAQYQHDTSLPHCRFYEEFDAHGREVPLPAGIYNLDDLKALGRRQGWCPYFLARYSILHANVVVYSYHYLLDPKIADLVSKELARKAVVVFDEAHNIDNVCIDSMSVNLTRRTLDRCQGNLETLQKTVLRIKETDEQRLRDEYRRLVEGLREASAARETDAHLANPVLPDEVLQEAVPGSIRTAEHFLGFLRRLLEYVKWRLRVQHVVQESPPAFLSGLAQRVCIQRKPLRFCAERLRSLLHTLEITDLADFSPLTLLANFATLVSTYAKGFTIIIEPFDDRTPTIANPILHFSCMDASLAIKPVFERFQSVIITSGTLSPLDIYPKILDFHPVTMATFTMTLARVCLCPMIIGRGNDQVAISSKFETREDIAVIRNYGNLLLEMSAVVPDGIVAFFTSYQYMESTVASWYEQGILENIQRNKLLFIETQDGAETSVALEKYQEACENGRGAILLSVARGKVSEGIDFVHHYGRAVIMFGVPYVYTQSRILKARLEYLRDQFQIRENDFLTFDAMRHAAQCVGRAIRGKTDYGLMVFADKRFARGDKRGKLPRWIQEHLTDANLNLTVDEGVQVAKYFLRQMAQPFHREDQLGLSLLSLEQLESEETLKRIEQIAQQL

[9] = target: Dual specificity tyrosine-phosphorylation-regulated kinase 1A (Homo sapiens, UniProt Q13627)
Also: in the data inactive means no Kd found up to 30 µM.

Sequence of Serine/threonine-protein kinase N1 (Q16512 whole entry): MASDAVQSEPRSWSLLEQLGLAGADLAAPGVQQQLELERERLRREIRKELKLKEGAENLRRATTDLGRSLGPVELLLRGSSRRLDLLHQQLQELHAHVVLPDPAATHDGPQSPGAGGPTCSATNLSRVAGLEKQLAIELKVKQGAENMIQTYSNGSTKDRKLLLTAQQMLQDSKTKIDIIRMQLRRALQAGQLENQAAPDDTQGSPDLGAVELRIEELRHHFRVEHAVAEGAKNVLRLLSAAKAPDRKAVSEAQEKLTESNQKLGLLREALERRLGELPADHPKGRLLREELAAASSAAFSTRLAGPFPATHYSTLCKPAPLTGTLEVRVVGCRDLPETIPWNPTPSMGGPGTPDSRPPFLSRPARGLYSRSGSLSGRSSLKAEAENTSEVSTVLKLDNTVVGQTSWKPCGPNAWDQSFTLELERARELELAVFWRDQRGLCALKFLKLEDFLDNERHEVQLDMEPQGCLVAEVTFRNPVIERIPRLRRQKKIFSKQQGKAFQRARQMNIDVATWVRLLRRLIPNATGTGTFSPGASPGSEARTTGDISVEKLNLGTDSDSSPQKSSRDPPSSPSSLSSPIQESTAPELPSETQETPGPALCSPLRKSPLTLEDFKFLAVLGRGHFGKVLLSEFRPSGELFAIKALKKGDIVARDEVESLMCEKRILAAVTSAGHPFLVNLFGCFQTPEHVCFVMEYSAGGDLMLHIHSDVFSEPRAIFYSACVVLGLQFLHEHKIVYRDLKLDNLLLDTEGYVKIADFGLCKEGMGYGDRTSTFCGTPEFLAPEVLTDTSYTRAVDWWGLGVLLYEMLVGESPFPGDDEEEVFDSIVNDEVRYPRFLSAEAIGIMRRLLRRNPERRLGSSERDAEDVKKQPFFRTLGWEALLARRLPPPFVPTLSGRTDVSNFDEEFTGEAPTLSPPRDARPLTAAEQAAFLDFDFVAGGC
Sequence of Rho-associated protein kinase 2 (O75116 whole entry): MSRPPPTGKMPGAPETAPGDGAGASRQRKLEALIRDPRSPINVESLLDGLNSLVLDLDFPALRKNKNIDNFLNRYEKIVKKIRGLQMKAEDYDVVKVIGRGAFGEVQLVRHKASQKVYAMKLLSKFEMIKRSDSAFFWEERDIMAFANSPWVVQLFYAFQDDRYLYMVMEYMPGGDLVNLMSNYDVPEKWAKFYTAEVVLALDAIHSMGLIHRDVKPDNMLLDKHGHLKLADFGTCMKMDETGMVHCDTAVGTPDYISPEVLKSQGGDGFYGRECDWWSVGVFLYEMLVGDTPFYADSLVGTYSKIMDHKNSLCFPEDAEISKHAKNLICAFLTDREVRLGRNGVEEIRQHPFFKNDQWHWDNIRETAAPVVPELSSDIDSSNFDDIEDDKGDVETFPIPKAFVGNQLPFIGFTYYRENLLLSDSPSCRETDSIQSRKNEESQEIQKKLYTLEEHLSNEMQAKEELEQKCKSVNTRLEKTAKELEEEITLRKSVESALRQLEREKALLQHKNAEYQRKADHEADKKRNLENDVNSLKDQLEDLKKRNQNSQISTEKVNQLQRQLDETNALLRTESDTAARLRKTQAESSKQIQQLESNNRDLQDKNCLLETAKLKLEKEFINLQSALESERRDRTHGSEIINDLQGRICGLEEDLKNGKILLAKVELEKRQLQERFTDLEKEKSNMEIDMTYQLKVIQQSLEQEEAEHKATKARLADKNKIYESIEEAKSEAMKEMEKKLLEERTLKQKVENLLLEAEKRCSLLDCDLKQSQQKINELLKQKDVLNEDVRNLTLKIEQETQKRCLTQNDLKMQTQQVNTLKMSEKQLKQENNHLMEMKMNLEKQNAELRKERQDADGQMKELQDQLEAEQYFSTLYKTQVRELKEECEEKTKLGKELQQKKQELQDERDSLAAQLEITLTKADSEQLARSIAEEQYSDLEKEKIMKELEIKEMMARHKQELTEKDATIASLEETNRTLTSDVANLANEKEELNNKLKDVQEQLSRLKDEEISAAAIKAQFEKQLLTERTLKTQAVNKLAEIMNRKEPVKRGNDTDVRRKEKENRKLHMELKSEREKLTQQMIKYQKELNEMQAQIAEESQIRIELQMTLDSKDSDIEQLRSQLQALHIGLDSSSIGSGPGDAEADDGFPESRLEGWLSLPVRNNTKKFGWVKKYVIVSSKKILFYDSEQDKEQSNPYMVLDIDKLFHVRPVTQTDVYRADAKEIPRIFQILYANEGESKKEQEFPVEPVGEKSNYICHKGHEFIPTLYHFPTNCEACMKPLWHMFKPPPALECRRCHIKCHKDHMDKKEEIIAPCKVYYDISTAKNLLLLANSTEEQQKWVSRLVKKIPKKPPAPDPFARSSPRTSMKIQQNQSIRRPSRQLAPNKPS
Sequence of Casein kinase I isoform delta (P48730 whole entry, canonical isoform): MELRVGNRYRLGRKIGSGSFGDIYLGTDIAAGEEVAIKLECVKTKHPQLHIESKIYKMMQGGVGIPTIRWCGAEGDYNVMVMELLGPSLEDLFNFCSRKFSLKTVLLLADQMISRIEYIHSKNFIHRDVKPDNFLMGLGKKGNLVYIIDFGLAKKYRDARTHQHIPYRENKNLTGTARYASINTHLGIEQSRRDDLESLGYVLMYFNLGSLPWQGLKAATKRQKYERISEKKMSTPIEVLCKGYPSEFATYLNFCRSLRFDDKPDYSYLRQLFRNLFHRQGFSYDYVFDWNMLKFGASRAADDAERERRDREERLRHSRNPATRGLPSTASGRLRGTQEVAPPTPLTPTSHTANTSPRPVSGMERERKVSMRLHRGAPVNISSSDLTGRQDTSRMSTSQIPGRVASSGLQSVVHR
Sequence of Interleukin-1 receptor-associated kinase 1 (P51617 whole entry): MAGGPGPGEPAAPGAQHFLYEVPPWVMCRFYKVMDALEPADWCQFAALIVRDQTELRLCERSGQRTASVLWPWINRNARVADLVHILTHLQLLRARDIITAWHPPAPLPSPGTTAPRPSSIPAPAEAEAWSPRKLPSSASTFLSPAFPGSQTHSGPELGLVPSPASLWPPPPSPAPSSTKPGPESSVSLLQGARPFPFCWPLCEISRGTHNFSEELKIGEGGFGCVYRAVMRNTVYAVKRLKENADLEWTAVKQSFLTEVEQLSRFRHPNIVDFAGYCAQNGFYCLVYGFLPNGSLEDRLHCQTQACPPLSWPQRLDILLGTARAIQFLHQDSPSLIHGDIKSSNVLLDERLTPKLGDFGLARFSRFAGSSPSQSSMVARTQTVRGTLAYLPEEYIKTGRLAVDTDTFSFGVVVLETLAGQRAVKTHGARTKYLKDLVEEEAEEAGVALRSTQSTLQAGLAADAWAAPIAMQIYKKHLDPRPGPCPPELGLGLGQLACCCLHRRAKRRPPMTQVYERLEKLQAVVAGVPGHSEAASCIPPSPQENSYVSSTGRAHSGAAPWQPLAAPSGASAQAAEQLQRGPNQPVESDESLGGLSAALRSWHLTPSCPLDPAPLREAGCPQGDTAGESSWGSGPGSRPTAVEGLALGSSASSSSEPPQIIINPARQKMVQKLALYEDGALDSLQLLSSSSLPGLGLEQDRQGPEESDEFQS
Sequence of Ribosomal protein S6 kinase alpha-1 (Q15418 whole entry): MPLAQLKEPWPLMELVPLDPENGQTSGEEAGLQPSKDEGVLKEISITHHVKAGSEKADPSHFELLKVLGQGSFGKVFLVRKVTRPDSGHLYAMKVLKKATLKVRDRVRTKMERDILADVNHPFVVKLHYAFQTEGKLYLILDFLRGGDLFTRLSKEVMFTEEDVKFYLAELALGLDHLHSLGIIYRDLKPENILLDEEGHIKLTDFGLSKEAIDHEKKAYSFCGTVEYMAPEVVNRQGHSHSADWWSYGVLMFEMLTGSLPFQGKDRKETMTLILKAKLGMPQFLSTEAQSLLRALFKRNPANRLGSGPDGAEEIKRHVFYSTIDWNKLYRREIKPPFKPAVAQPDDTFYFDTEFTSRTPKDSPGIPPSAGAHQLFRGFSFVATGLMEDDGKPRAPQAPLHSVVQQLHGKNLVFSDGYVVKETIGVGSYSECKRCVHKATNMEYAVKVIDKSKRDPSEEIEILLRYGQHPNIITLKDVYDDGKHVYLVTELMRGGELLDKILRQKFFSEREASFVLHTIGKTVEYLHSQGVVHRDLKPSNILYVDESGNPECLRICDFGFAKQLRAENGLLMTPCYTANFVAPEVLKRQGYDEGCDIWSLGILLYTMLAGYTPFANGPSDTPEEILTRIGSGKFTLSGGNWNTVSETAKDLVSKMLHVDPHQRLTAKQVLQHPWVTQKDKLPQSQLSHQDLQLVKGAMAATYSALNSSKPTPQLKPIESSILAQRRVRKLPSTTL

| SMILES | Kd [1] | Kd [2] | Kd [3] | Kd [4] | Kd [5] | Kd [6] | Kd [7] | Kd [8] | Kd [9] |
| --- | --- | --- | --- | --- | --- | --- | --- | --- | --- |
| CCc1cnn2c(NCc3ccc[n+]([O-])c3)cc(N3CCCC[C@H]3CCO)nc12 [DINACICLIB] | > 30 µM (inactive) | > 30 µM (inactive) | > 30 µM (inactive) | > 30 µM (inactive) | > 30 µM (inactive) | > 30 µM (inactive) | > 30 µM (inactive) | – | – |
| CNC(=O)c1ccc(C)c(-n2c(C)cc(OCc3ccc(F)cc3F)c(Br)c2=O)c1 [PH-797804] | > 30 µM (inactive) | > 30 µM (inactive) | > 30 µM (inactive) | > 30 µM (inactive) | > 30 µM (inactive) | > 30 µM (inactive) | – | > 30 µM (inactive) | > 30 µM (inactive) |
| CC[C@H](Nc1ncnc2[nH]cnc12)c1nc2cccc(F)c2c(=O)n1-c1ccccc1 [IDELALISIB] | > 30 µM (inactive) | > 30 µM (inactive) | > 30 µM (inactive) | > 30 µM (inactive) | > 30 µM (inactive) | > 30 µM (inactive) | > 30 µM (inactive) | – | > 30 µM (inactive) |
| Cc1cn(-c2cc(NC(=O)c3ccc(C)c(Nc4nccc(-c5cccnc5)n4)c3)cc(C(F)(F)F)c2)cn1 [NILOTINIB] | – | > 30 µM (inactive) | – | – | – | – | – | > 30 µM (inactive) | – |
| CNC(=O)c1cc(Oc2ccc(NC(=O)Nc3ccc(Cl)c(C(F)(F)F)c3)c(F)c2)ccn1 [REGORAFENIB] | > 30 µM (inactive) | > 30 µM (inactive) | > 30 µM (inactive) | > 30 µM (inactive) | > 30 µM (inactive) | > 30 µM (inactive) | > 30 µM (inactive) | – | > 30 µM (inactive) |
| Cc1cc(Nc2cc(N3CCN(C)CC3)nc(/C=C/c3ccccc3)n2)n[nH]1 [ENMD-2076] | – | > 30 µM (inactive) | – | > 30 µM (inactive) | > 30 µM (inactive) | > 30 µM (inactive) | – | > 30 µM (inactive) | – |
| OCCn1cc(-c2cnc3nnn(Cc4ccc5ncccc5c4)c3n2)cn1 [PF-04217903] | > 30 µM (inactive) | > 30 µM (inactive) | > 30 µM (inactive) | > 30 µM (inactive) | > 30 µM (inactive) | > 30 µM (inactive) | > 30 µM (inactive) | > 30 µM (inactive) | – |
| CC[C@@H]1C(=O)N(C)c2cnc(Nc3ccc(C(=O)N[C@H]4CC[C@H](N5CCN(CC6CC6)CC5)CC4)cc3OC)nc2N1C(C)C [VOLASERTIB] | > 30 µM (inactive) | > 30 µM (inactive) | > 30 µM (inactive) | > 30 µM (inactive) | > 30 µM (inactive) | > 30 µM (inactive) | > 30 µM (inactive) | – | > 30 µM (inactive) |
| O=C(Nc1cccc(Cl)c1)Nc1ncc(CCNc2ncnc3ccsc23)s1 [SNS-314] | – | > 30 µM (inactive) | – | > 30 µM (inactive) | > 30 µM (inactive) | > 30 µM (inactive) | – | > 30 µM (inactive) | – |
| Cc1nc(N)sc1-c1ccnc(Nc2ccc(N3CCOCC3)cc2)n1 [CYC-116] | – | > 30 µM (inactive) | – | 13.2 µM (active) | > 30 µM (inactive) | > 30 µM (inactive) | – | > 30 µM (inactive) | – |
| COc1cc2nccc(Oc3ccc(NC(=O)NC4CC4)c(Cl)c3)c2cc1C(N)=O [LENVATINIB] | – | > 30 µM (inactive) | – | > 30 µM (inactive) | – | > 30 µM (inactive) | > 30 µM (inactive) | > 30 µM (inactive) | > 30 µM (inactive) |
| CCn1c(-c2nonc2N)nc2c(C#CC(C)(C)O)ncc(OC[C@H]3CCCNC3)c21 [GSK-690693] | – | > 30 µM (inactive) | – | – | – | > 30 µM (inactive) | – | > 30 µM (inactive) | – |
| CN1CCN(c2ccc3nc(-c4c(N)c5c(F)cccc5[nH]c4=O)[nH]c3c2)CC1 [DOVITINIB] | – | > 30 µM (inactive) | – | – | – | > 30 µM (inactive) | – | > 30 µM (inactive) | – |
| Nc1nc(N)c2nc(-c3cccc(O)c3)c(-c3cccc(O)c3)nc2n1 [TG100-115] | – | > 30 µM (inactive) | > 30 µM (inactive) | – | – | > 30 µM (inactive) | – | > 30 µM (inactive) | – |
